Test results as given in patent publication US10947242B2, “[1,2,4]triazolo[1,5and#8208;A]pyrimidine compounds as PDE2 inhibitors” (Janssen Pharmaceutica NV, priority 2016, dated 2021).
Several values for one entry are separate records, joined by “and”; a condition that tells them apart may be missing. Equal values may be shown once. Read-outs that look alike come from different tables or passages of the source.

What was measured:
[1] = biological target: T1, Human recombinant PDE2A (hPDE2A) (Homo sapiens, UniProt O00408); assay: In vitro assay PDE2A (SPA, 3H-cGMP hydrolysis); format: biochemical; settings: for Emax: read-out: hPDE2A Emax
T1 construct: His tag (inferred from metal chelate purification); made in house; host or cells: Sf9 insect cells (baculovirus)

[2] = biological target: T2, Human recombinant PDE3A (hPDE3A) (Homo sapiens, UniProt Q14432); assay: In vitro assay PDE3A (SPA, 3H-cAMP hydrolysis); format: biochemical; settings: for IC50: hPDE3B pIC50, read-out: pIC50 (converted); for Emax: read-out: hPDE3B Emax, read-out: Emax;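 as to all read-outs here: the method names PDE3A and the table heading PDE3B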
T2 construct: purchased Scottish Biomedical; host or cells: Sf9 insect cells
Outline: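 Radiometric SPA measuring [3H]-cAMP hydrolysis (0.4 μM cAMP, 2.4 μCi/ml) over 60 min at room temperature, in Tris pH 7.8 buffer with MgCl2 and EGTA, 1% DMSO. Enzyme: recombinant human brain PDE3A expressed in Sf9 cells, used as partially purified lysate. Counts compared with enzyme-free blanks and vehicle controls.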

[3] = biological target: T3, Human recombinant PDE10A (hPDE10A) (Homo sapiens, UniProt Q9Y233); assay: In vitro assay PDE10A, human clone (SPA, 3H-cAMP hydrolysis); format: biochemical
T3 construct: His tag (inferred from metal chelate purification); made in house; host or cells: Sf9 insect cells (baculovirus)
Outline: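 Hydrolysis of 3H-cAMP (60 nM cAMP, 0.008 μCi tracer) proceeded for 60 min at room temperature, with the product detected by SPA bead scintillation counting. The enzyme was hPDE10A from baculovirus-infected Sf9 cells in Tris pH 7.8 buffer with MgCl2 and EGTA, and compounds were at 1% DMSO final. Blanks lacked enzyme.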

PDE2A = biological target: T4, PDE2A (Rattus norvegicus, UniProt Q01062); assay: PDE2 occupancy by test compounds, ex-vivo autoradiography with [3H]B-17a; format: in vivo, Male Wistar rats; settings: for receptor occupancy at 10 mg/kg: percentage receptor occupancy, ex-vivo autoradiography, striatum; for ED50: drug dose producing 50% receptor occupancy, read-out: PDE Occupancy ED50
T4 construct: Twenty μm-thick striatal sections were cut; from tissue; host or cells: rat brain, striatal sections
T4 sequence (Q01062 1-928): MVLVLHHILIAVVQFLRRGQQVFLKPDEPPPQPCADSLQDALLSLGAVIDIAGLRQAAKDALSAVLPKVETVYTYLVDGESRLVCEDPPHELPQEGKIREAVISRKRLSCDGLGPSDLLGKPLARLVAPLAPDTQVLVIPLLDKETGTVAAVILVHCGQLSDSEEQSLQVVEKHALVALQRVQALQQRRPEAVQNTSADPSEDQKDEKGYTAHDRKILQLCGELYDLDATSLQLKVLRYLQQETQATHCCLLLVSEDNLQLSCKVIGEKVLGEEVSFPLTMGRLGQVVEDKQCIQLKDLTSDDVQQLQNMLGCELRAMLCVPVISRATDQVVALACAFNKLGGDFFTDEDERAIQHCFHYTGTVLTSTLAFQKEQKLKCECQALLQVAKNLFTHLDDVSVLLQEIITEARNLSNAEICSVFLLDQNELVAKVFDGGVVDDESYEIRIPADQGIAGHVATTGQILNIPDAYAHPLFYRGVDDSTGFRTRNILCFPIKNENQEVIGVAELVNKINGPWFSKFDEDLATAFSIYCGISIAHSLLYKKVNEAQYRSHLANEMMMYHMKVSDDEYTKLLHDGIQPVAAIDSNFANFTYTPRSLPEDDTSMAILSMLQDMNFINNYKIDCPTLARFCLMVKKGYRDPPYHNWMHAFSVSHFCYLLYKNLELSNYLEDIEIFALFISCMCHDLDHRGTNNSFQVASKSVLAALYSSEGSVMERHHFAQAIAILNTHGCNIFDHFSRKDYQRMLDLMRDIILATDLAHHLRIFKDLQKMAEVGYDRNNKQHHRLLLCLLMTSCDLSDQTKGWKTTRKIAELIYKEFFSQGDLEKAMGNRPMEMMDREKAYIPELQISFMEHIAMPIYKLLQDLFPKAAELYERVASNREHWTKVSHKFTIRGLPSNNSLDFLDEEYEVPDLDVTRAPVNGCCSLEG

[4] = read-out: hPDE2A pIC50 (converted)
[5] = human clone by default (no (r) mark), read-out: hPDE10A2 or rPDE10A2 Emax
[6] = human clone by default (no (r) mark), read-out: hPDE10A2 or rPDE10A2 pIC50 (converted)
[7] = human recombinant PDE2A, 10 μM cGMP substrate, read-out: hPDE2A pIC50 (converted)
[8] = human clone (h), default, read-out: hPDE10A2 Emax
[9] = human clone (h), default, read-out: hPDE10A2 pIC50 (converted)

T1 sequence (O00408 whole entry): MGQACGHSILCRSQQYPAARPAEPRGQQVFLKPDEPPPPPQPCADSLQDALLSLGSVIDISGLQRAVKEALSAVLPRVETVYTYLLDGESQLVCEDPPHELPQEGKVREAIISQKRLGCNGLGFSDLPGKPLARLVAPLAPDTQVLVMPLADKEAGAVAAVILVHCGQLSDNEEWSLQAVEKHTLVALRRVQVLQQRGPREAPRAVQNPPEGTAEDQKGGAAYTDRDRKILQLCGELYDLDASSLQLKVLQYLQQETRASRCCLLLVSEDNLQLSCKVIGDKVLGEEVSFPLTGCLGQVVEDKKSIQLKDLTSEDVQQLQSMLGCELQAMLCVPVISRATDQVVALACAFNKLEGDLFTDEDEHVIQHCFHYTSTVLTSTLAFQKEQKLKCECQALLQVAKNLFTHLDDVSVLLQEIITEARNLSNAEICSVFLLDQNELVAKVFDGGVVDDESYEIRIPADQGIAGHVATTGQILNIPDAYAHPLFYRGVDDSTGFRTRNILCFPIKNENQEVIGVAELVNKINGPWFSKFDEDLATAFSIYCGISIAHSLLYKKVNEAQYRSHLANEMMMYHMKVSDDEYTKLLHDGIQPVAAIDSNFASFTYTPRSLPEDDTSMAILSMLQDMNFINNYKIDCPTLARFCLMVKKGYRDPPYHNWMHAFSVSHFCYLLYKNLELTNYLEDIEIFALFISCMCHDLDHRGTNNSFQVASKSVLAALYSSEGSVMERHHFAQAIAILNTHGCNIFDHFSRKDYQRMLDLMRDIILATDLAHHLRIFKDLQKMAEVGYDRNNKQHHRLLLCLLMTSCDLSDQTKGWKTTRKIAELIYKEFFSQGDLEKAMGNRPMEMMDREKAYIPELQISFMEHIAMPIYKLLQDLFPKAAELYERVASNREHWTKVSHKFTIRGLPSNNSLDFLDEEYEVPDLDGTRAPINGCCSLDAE
T2 sequence (Q14432 whole entry): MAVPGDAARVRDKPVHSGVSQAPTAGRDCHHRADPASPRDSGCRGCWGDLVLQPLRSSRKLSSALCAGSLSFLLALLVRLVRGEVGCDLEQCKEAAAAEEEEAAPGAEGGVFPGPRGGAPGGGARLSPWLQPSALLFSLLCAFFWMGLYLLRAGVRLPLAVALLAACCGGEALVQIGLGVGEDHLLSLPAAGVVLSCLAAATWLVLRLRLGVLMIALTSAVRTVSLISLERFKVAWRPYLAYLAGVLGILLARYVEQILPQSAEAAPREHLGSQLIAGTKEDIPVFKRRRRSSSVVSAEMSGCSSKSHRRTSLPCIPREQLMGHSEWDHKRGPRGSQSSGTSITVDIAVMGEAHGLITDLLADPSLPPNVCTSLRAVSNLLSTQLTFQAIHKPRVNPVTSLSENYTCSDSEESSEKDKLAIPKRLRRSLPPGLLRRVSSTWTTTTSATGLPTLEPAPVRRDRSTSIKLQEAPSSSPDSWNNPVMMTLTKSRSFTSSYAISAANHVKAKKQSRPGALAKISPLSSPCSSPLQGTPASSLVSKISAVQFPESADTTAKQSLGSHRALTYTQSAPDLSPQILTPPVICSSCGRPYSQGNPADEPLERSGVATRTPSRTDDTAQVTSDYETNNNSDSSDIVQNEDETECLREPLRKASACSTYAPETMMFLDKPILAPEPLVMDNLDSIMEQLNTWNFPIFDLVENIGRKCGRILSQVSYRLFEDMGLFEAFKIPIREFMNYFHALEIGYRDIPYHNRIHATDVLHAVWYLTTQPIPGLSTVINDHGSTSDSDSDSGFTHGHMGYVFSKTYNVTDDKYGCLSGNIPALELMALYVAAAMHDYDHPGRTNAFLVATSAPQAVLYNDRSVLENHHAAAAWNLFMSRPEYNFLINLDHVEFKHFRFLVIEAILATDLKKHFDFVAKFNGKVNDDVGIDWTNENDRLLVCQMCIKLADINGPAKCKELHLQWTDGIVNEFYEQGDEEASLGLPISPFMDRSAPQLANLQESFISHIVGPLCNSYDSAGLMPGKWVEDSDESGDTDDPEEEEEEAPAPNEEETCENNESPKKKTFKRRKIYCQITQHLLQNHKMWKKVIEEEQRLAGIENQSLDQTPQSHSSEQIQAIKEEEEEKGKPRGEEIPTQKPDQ
T3 sequence (Q9Y233 267-1055): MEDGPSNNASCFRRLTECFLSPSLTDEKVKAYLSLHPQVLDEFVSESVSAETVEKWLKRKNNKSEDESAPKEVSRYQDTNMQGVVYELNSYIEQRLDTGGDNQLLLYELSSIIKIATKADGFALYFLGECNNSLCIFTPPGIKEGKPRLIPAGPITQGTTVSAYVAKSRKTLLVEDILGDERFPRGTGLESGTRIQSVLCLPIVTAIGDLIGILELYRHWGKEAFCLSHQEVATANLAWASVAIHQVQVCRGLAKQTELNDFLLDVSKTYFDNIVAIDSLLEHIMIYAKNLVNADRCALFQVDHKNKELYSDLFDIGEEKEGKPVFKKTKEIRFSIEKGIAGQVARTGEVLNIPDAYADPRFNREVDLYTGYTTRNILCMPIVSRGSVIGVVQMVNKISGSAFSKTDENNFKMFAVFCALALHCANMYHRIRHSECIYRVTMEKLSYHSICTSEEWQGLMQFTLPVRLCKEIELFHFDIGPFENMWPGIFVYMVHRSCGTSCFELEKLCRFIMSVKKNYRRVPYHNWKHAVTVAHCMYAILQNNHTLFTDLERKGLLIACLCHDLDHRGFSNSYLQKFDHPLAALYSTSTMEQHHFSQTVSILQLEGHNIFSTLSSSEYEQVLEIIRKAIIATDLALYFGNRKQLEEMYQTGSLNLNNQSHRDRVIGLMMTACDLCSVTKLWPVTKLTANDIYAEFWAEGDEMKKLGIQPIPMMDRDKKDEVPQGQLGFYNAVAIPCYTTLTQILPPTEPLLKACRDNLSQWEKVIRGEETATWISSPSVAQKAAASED

Row | Compound | Emax [1] [%] | IC50 [1, 4] [nM] | IC50 [2] [µM] | Emax [2] [%] | Emax [3, 5] [%] | IC50 [3, 6] [nM] | receptor occupancy at 10 mg/kg (PDE2A; po, route PO (oral)) [%] | IC50 [1, 7] [nM] | Emax ([1]; human recombinant PDE2A) [%] | Emax [3, 8] [%] | IC50 [3, 9] | ED50 (PDE2A; route PO (oral)) [mg/kg] | receptor occupancy at 10 mg/kg (PDE2A; sc, route SC (subcutaneous)) [%] | receptor occupancy at 10 mg/kg (PDE2A; route PO (oral)) [%] | IC50 ([1]; hPDE2A pIC50) [nM] | IC50 ([1]; hPDE2A pIC50, human recombinant PDE2A, 10 μM cGMP substrate) [nM] | hPDE10A2 Emax ([3]; human clone (h), default)
1 | Cc1cc([C@@H]2CN(C(=O)c3cc(C4CC4)ncc3C(F)(F)F)CC[C@H]2C)n2ncnc2n1 [Compound 283] | 100 | 8.51 | > 10 | 38 | 98 | 178 | -12 | – | – | – | – | – | – | – | – | – | –
2 | Cc1cc(C(=O)N2CC[C@@H](C)[C@H](c3cc(C(F)F)nc4ncnn34)C2)c(F)cn1 [Compound 84] | 101 | 3.16 | 7.41 | 30 | – | – | 45 | 3.16 | 101 | 89 | 708 nM | 14.1 | – | – | – | – | –
3 | COc1cc(C(=O)N2CC[C@@H](C)[C@H](c3cc(C(F)F)nc4ncnn34)C2)ccc1F [Compound 195] | 98 | 4.47 | 5.62 | 70 | – | – | -7 | 4.47 | 98 | 93 | 372 nM | – | -13 | – | – | – | –
4 | CN(C)c1ccc(C(=O)N2[C@H]3CC[C@H](c4cc(C(F)F)nc5ncnn45)[C@@H]2CC3)cc1 [Compound 362] | 99 | 1.7 | 0.871 | 88 | 93 | 794 | – | – | – | – | – | – | – | 3 | – | – | –
5 | Cc1cc([C@@H]2CN(C(=O)c3ccc4nccn4c3)CC[C@H]2C)n2ncnc2n1 [Compound 99] | 100 | 0.603 | 2.09 | 87 | – | – | 1 | 0.603 | 100 | 100 | 9.55 nM | – | – | – | – | – | –
6 | Cc1cc(C(=O)N2CC[C@@H](C)[C@H](c3cc(C)nc4ncnn34)C2)cc(C(F)(F)F)n1 [Compound 4] | 100 | – | 5.75 | 70 | – | – | 9 | – | – | 99 | 24 nM | – | – | – | 1.45 | 1.45 | –
7 | Cc1cc(C(=O)N2CC[C@@H](C)[C@H](c3cc(C(F)F)nc4ncnn34)C2)c(F)c(C)n1 [Compound 70] | 102 | 1.95 | 5.13 | 66 | – | – | – | 1.74 | 102 | 93 | 331 nM and 380 nM | 6.4 | 65 | – | – | – | 95
8 | Cc1cc(C(=O)N2[C@H]3CC[C@H](c4cc(C(F)F)nc5ncnn45)[C@@H]2CC3)cnc1C [Compound 366] | 99 | 10.2 | > 10 | 22 | 64 | 5750 | – | – | – | – | – | – | – | 18 | – | – | –
9 | COc1cc(C(=O)N2CC[C@@H](C)[C@H](c3cc(C(F)F)nc4ncnn34)C2)cc(OC)n1 [Compound 284] | 101 | 1.7 | 1.26 | 89 | 98 | 55 | 16 | – | – | – | – | – | – | – | – | – | –
10 | COc1cc(C(=O)N2CC[C@@H](C)[C@H](c3cc(C(F)F)nc4ncnn34)C2)nc2ccccc12 [Compound 125] | 100 | 2.09 | 0.589 | 96 | – | – | -16 | 2.09 | 100 | 96 | 589 nM | – | – | – | – | – | –
